According to patent US9073881B2, “Benzoic acid derivatives” (HOFFMANN-LA ROCHE INC., priority 2011, dated 2015):

Target: Human eIF4E (Homo sapiens (Human), UniProt P06730)
Assay: Human eIF4E/4G binding assay (time-resolved fluorescence, HH-eIF4E and biotin-labeled 4G2 peptide)
Conditions: inhibition of binding of His-tagged human eIF4E (aa 28-217) to biotin-labeled 4G2 peptide
Procedure: The protein was solubilized with 8 M urea and purified under denaturing conditions using nickel-charged HisTrap HP columns (GE Healthcare). The protein was refolded by diluting to approximately 0.25 mg/mL with 6 M urea, 20 mM Hepes pH 7.0, 500 mM NaCl, 1 mM DTT, 1 mM EDTA, and 0.5 M arginine.HCl, and then dialyzing overnight into the same buffer without the urea. The protein was further dialyzed into 20 mM Hepes pH 6.5, 50 mM NaCl, 1 mM EDTA, and 1 mM DTT, filtered, and then concentrated using Hitrap SP sepharose FF columns (GE Healthcare). The protein was dialyzed into 20 mM Hepes pH 7.0, 500 mM NaCl, 5 mM DTT, and 10% glycerol and stored at −80° C. until use. Test compounds (1.6 mM stock in DMSO) were diluted 3 fold in series in DMSO. Compound solutions were diluted 4 fold in Assay Buffer (50 mM sodium phosphate, pH 6.5, 50 mM KCl, 1 mM DTT and 0.5 mg/mL gammaglobulin). […] The samples were incubated at room temperature for 20 minutes. […] IC50 values were calculated using Condoseo software (Genedata AG).

Sequence of Human eIF4E (P06730 28-217): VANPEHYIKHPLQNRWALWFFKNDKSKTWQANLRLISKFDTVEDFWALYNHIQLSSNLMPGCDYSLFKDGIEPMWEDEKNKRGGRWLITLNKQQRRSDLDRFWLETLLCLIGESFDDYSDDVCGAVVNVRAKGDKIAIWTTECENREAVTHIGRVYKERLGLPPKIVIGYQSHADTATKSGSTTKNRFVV

IC50 [µM]	SMILES
10	CC(=O)N1CCC(NC(=O)c2ccc(-c3ccc(-c4nc(-c5ccc(Cl)c(Cl)c5)cs4)cc3C(=O)O)cc2)CC1 [Example 52, 4′-(1-Acetyl-piperidin-4-ylcarbamoyl)-4-[4-(3,4-dichloro-phenyl)-thiazol-2-yl]-biphenyl-2-carboxylic acid]
> 80	CN1CCN(C(=O)c2ccc(-c3ccc(-c4nc(-c5ccc(Cl)c(Cl)c5)cs4)cc3C(=O)O)cc2)CC1 [Example 53, 4-[4-(3,4-Dichloro-phenyl)-thiazol-2-yl]-4′-(4-methyl-piperazine-1-carbonyl)-biphenyl-2-carboxylic acid]
4.3	O=C(O)c1cc(-c2nc(-c3ccc(Cl)c(Cl)c3)cs2)ccc1-c1ccc(C(=O)N2CCCC2)cc1 [Example 57, 4-[4-(3,4-Dichloro-phenyl)-thiazol-2-yl]-4′-(pyrrolidine-1-carbonyl)-biphenyl-2-carboxylic acid]
> 80	O=C(NCCCN1CCOCC1)c1ccc(-c2ccc(-c3nc(-c4ccc(Cl)c(Cl)c4)cs3)cc2C(=O)O)cc1 [Example 58, 4-[4-(3,4-Dichloro-phenyl)-thiazol-2-yl]-4′-(3-morpholin-4-yl-propylcarbamoyl)-biphenyl-2-carboxylic acid]
> 80	O=C(NCCN1CCOCC1)c1ccc(-c2ccc(-c3nc(-c4ccc(Cl)c(Cl)c4)cs3)cc2C(=O)O)cc1 [Example 59, 4-[4-(3,4-Dichloro-phenyl)-thiazol-2-yl]-4′-(2-morpholin-4-yl-ethylcarbamoyl)-biphenyl-2-carboxylic acid]
8.9	O=C(NCC1CCOCC1)c1ccc(-c2ccc(-c3nc(-c4ccc(Cl)c(Cl)c4)cs3)cc2C(=O)O)cc1 [Example 60, 4-[4-(3,4-Dichloro-phenyl)-thiazol-2-yl]-4′-[(tetrahydro-pyran-4-ylmethyl)-carbamoyl]-biphenyl-2-carboxylic acid]
5.5	O=C(NCC1CCCO1)c1ccc(-c2ccc(-c3nc(-c4ccc(Cl)c(Cl)c4)cs3)cc2C(=O)O)cc1 (stereo not shown) [Example 61, 4-[4-(3,4-Dichloro-phenyl)-thiazol-2-yl]-4′-[(tetrahydro-furan-2-ylmethyl)-carbamoyl]-biphenyl-2-carboxylic acid]
7.7	O=C(NC1CCOC1)c1ccc(-c2ccc(-c3nc(-c4ccc(Cl)c(Cl)c4)cs3)cc2C(=O)O)cc1 (stereo not shown) [Example 62, 4-[4-(3,4-Dichloro-phenyl)-thiazol-2-yl]-4′-(tetrahydro-furan-3-ylcarbamoyl)-biphenyl-2-carboxylic acid]
5.7	O=C(NC1CCOCC1)c1ccc(-c2ccc(-c3nc(-c4ccc(Cl)c(Cl)c4)cs3)cc2C(=O)O)cc1 [Example 63, 4-[4-(3,4-Dichloro-phenyl)-thiazol-2-yl]-4′-(tetrahydro-pyran-4-ylcarbamoyl)-biphenyl-2-carboxylic acid]
2	COc1ccc(CNC(=O)c2ccc(-c3ccc(-c4nc(-c5ccc(Cl)c(Cl)c5)cs4)cc3C(=O)O)cc2)cc1 [Example 64, 4-[4-(3,4-Dichloro-phenyl)-thiazol-2-yl]-4′-(4-methoxy-benzylcarbamoyl)-biphenyl-2-carboxylic acid]
1.3	COc1cccc(CNC(=O)c2ccc(-c3ccc(-c4nc(-c5ccc(Cl)c(Cl)c5)cs4)cc3C(=O)O)cc2)c1 [Example 65, 4-[4-(3,4-Dichloro-phenyl)-thiazol-2-yl]-4′-(3-methoxy-benzylcarbamoyl)-biphenyl-2-carboxylic acid]
9.6	O=C(NCCc1cccnc1)c1ccc(-c2ccc(-c3nc(-c4ccc(Cl)c(Cl)c4)cs3)cc2C(=O)O)cc1 [Example 66, 4-[4-(3,4-Dichloro-phenyl)-thiazol-2-yl]-4′-(2-pyridin-3-yl-ethylcarbamoyl)-biphenyl-2-carboxylic acid]
2.9	O=C(NCCc1ccccc1)c1ccc(-c2ccc(-c3nc(-c4ccc(Cl)c(Cl)c4)cs3)cc2C(=O)O)cc1 [Example 67, 4-[4-(3,4-Dichloro-phenyl)-thiazol-2-yl]-4′-phenethylcarbamoyl-biphenyl-2-carboxylic acid]
